Assay [1] concerns the target T1, AR-VP16 (Homo sapiens, UniProt P10275).
T1 sequence (P10275 560-920 limits assumed): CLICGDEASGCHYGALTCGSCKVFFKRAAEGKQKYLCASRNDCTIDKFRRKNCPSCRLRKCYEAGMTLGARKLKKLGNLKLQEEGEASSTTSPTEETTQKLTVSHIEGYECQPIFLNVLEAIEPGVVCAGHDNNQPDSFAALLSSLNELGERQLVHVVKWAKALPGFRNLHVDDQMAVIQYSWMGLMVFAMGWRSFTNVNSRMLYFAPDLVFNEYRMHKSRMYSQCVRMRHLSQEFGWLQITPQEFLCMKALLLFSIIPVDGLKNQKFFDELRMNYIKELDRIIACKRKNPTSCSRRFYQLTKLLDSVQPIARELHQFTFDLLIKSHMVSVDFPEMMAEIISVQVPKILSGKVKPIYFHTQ
Kind of assay: AR-VP16 DNA Binding Assay, agonist mode (HepG2 cells). The format is cell-based. Conditions: Emax >20x DMSO control = agonist.

Assay [2] deals with T1, AR-VP16. Kind of assay: AR-VP16 DNA Binding Assay, antagonist mode (HepG2 cells, 0.1 nM R1881). It is filed as cell-based. A digest of the protocol: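 Transfected HepG2 cells expressing AR-VP16 received serially diluted compound in charcoal-stripped-serum RPMI the day after transfection, with 0.1 nM R1881 (final) added only for antagonist testing. After 48 h, cells were lysed for measurement.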

Bounds are passed on as bounds.

The IC50 is the concentration needed to halve the response being measured. Read a high IC50 as weaker potency in that assay.

`CCN1CCC(Oc2ccc(N3C(=S)N(c4cnc(C#N)c(C)c4)C(=O)C34CCC4)cc2)CC1` [Compound 216, 5-(5-(4-((1-Ethylpiperidin-4-yl)oxy)phenyl)-8-oxo-6-thioxo-5,7-diazaspiro[3.4]octan-7-yl)-3-methylpicolinonitrile]: on AR-VP16 [1], the “ARVP16 DNA Binding Assay (Agonist mode): Agonist?” value (from here on “ARVP16 DNA Binding Assay”) is on record as “No (Agonist defined as a compound whose Emax in the ARVP16 DNA Binding Assay (Agonist mode) is >20x DMSO control)”. Moreover, on AR-VP16 [2], the IC50 is > 1 µM.
On to `N#Cc1ncc(N2C(=O)C3(CCC3)N(c3ccc(C(=O)NCCc4cccnc4)c(F)c3)C2=S)cc1C(F)(F)F` [Compound 244, 4-(7-(6-Cyano-5-(trifluoromethyl)pyridin-3-yl)-8-oxo-6-thioxo-5,7-diazaspiro[3.4]octan-5-yl)-2-fluoro-N-(2-(pyridin-3-yl)ethyl)benzamide], for which the “ARVP16 DNA Binding Assay” value at AR-VP16 [1] is given as “No (Agonist defined as a compound whose Emax in the ARVP16 DNA Binding Assay (Agonist mode) is >20x DMSO control)”. In addition, the IC50 on AR-VP16 [2] is < 1 µM.
On the same counts, the results for `Cc1cc(N2C(=O)C3(CCC3)N(c3ccc(C(=O)NCc4ccc(F)cc4)c(F)c3)C2=S)cnc1C#N` [Compound 293, 4-(7-(6-Cyano-5-methylpyridin-3-yl)-8-oxo-6-thioxo-5,7-diazaspiro[3.4]octan-5-yl)-2-fluoro-N-(4-fluorobenzyl)benzamide] are “No (Agonist defined as a compound whose Emax in the ARVP16 DNA Binding Assay (Agonist mode) is >20x DMSO control)” and < 1 µM.
For `N#Cc1ncc(N2C(=O)C3(CCC3)N(c3ccc(OCc4ccccc4)c(F)c3)C2=S)cc1C(F)(F)F` [Compound 128, 5-(5-(4-(Benzyloxy)-3-fluorophenyl)-8-oxo-6-thioxo-5,7-diazaspiro[3.4]octan-7-yl)-3-(trifluoromethyl)picolinonitrile] the same measures were “No (Agonist defined as a compound whose Emax in the ARVP16 DNA Binding Assay (Agonist mode) is >20x DMSO control)” and < 1 µM.
For `CC(C)C(=O)N1CCC(Oc2ccc(N3C(=S)N(c4cnc(C#N)c(C(F)(F)F)c4)C(=O)C34CCC4)cc2)CC1` [Compound 213, 5-(5-(4-((1-isobutyrylpiperidin-4-yl)oxy)phenyl)-8-oxo-6-thioxo-5,7-diazaspiro[3.4]octan-7-yl)-3-(trifluoromethyl)picolinonitrile] the same measures were “Yes (Agonist defined as a compound whose Emax in the ARVP16 DNA Binding Assay (Agonist mode) is >20x DMSO control)” and < 1 µM.
Consider `CN1CCN(CCCOc2ccc(N3C(=S)N(c4cnc(C#N)c(C(F)(F)F)c4)C(=O)C34CCC4)c(F)c2)CC1` [Compound 184, 5-(5-(2-Fluoro-4-(3-(4-methylpiperazin-1-yl)propoxy)phenyl)-8-oxo-6-thioxo-5,7-diazaspiro[3.4]octan-7-yl)-3-(trifluoromethyl)picolinonitrile], for which the “ARVP16 DNA Binding Assay” value at AR-VP16 [1] is “Yes (Agonist defined as a compound whose Emax in the ARVP16 DNA Binding Assay (Agonist mode) is >20x DMSO control)”. Further, the IC50 on AR-VP16 [2] was < 1 µM.
On the same counts, the results for `N#Cc1ncc(N2C(=O)C3(CCC3)N(c3ccc(C(=O)NCCCO)c(F)c3)C2=S)cc1C(F)(F)F` [Compound 306, 4-(7-(6-cyano-5-(trifluoromethyl)pyridin-3-yl)-8-oxo-6-thioxo-5,7-diazaspiro[3.4]octan-5-yl)-2-fluoro-N-(3-hydroxypropyl)benzamide] are “No (Agonist defined as a compound whose Emax in the ARVP16 DNA Binding Assay (Agonist mode) is >20x DMSO control)” and < 1 µM.
For `N#Cc1ncc(N2C(=O)C3(CCC3)N(c3c(F)cccc3F)C2=S)cc1C(F)(F)F` [Compound 73, 5-(5-(2,6-Difluorophenyl)-8-oxo-6-thioxo-5,7-diazaspiro[3.4]octan-7-yl)-3-(trifluoromethyl)picolinonitrile] the same measures were “Yes (Agonist defined as a compound whose Emax in the ARVP16 DNA Binding Assay (Agonist mode) is >20x DMSO control)” and < 1 µM.
As for `Cc1cc(N2C(=O)C3(CCC3)N(c3ccc(C(N)=O)c(F)c3)C2=S)cnc1C#N` [Compound 232, 4-(7-(6-Cyano-5-methylpyridin-3-yl)-8-oxo-6-thioxo-5,7-diazaspiro[3.4]octan-5-yl)-2-fluorobenzamide], at AR-VP16 [1], the “ARVP16 DNA Binding Assay” value was “No (Agonist defined as a compound whose Emax in the ARVP16 DNA Binding Assay (Agonist mode) is >20x DMSO control)”. Also, the IC50 at AR-VP16 [2] was < 1 µM.
For `N#Cc1ncc(N2C(=O)C3(CCC3)N(c3ccc(C(=O)NCc4ccc(Cl)cc4)c(F)c3)C2=S)cc1C(F)(F)F` [Compound 289, N-(4-Chlorobenzyl)-4-(7-(6-cyano-5-(trifluoromethyl)pyridin-3-yl)-8-oxo-6-thioxo-5,7-diazaspiro[3.4]octan-5-yl)-2-fluorobenzamide] the same measures were “No (Agonist defined as a compound whose Emax in the ARVP16 DNA Binding Assay (Agonist mode) is >20x DMSO control)” and < 1 µM.
For the compound `CCOC(=O)N1CCC(Oc2ccc(N3C(=S)N(c4cnc(C#N)c(C(F)(F)F)c4)C(=O)C34CCC4)cc2)CC1` [Compound 214, ethyl 4-(4-(7-(6-cyano-5-(trifluoromethyl)pyridin-3-yl)-8-oxo-6-thioxo-5,7-diazaspiro[3.4]octan-5-yl)phenoxy)piperidine-1-carboxylate], the “ARVP16 DNA Binding Assay” value at AR-VP16 [1] is listed as “Yes (Agonist defined as a compound whose Emax in the ARVP16 DNA Binding Assay (Agonist mode) is >20x DMSO control)”. For the same compound, the IC50 at AR-VP16 [2] was < 1 µM.
For `N#Cc1ncc(N2C(=O)C3(CCC3)N(c3cccc(Oc4ccccc4)c3)C2=S)cc1C(F)(F)F` [Compound 24, 5-(8-Oxo-5-(3-phenoxyphenyl)-6-thioxo-5,7-diazaspiro[3.4]octan-7-yl)-3-(trifluoromethyl)picolinonitrile] the same measures were “No (Agonist defined as a compound whose Emax in the ARVP16 DNA Binding Assay (Agonist mode) is >20x DMSO control)” and > 1 µM.
In the case of `N#Cc1ncc(N2C(=O)C3(CCC3)N(c3ccc(OCCCC[S+]([O-])CCCC(F)(F)C(F)(F)F)c(F)c3)C2=S)cc1C(F)(F)F` (centres unmarked) [Compound 152, 5-(5-(3-Fluoro-4-(4-((4,4,5,5,5-pentafluoropentyl)sulfinyl)butoxy)phenyl)-8-oxo-6-thioxo-5,7-diazaspiro[3.4]octan-7-yl)-3-(trifluoromethyl)picolinonitrile], the “ARVP16 DNA Binding Assay” value at AR-VP16 [1] is recorded as “No (Agonist defined as a compound whose Emax in the ARVP16 DNA Binding Assay (Agonist mode) is >20x DMSO control)”. Moreover, the half-maximal inhibitory concentration (IC50) on AR-VP16 [2] was < 1 µM.
For `N#Cc1ncc(N2C(=O)C3(CCC3)N(c3ccc(CCCC(=O)Nc4ccccc4)cc3)C2=S)cc1C(F)(F)F` [Compound 292, 4-(4-(7-(6-Cyano-5-(trifluoromethyl)pyridin-3-yl)-8-oxo-6-thioxo-5,7-diazaspiro[3.4]octan-5-yl)phenyl)-N-phenylbutanamide] the same measures were “No (Agonist defined as a compound whose Emax in the ARVP16 DNA Binding Assay (Agonist mode) is >20x DMSO control)” and > 1 µM.
For `N#Cc1ncc(N2C(=O)C3(CCC3)N(c3ccc(CCCO)cc3)C2=S)cc1C(F)(F)F` [Compound 86, 5-(5-(4-(3-hydroxypropyl)phenyl)-8-oxo-6-thioxo-5,7-diazaspiro[3.4]octan-7-yl)-3-(trifluoromethyl)picolinonitrile], the “ARVP16 DNA Binding Assay” value at AR-VP16 [1] is recorded as “No (Agonist defined as a compound whose Emax in the ARVP16 DNA Binding Assay (Agonist mode) is >20x DMSO control)”. Also, the IC50 on AR-VP16 [2] is < 1 µM.
As to `N#Cc1ncc(N2C(=O)C3(CCC3)N(c3ccc(C(=O)NCCc4ccncc4)c(F)c3)C2=S)cc1C(F)(F)F` [Compound 238, 4-(7-(6-Cyano-5-(trifluoromethyl)pyridin-3-yl)-8-oxo-6-thioxo-5,7-diazaspiro[3.4]octan-5-yl)-2-fluoro-N-(2-(pyridin-4-yl)ethyl)benzamide], the “ARVP16 DNA Binding Assay” value at AR-VP16 [1] is on record as “No (Agonist defined as a compound whose Emax in the ARVP16 DNA Binding Assay (Agonist mode) is >20x DMSO control)”. Also, on AR-VP16 [2], the IC50 is > 1 µM.
On the same counts, the results for `Cc1ccc(N2C(=S)N(c3cnc(C#N)c(Cl)c3)C(=O)C23CCC3)cc1` [Compound 57, 3-Chloro-5-(8-oxo-6-thioxo-5-(p-tolyl)-5,7-diazaspiro[3.4]octan-7-yl)picolinonitrile] are “No (Agonist defined as a compound whose Emax in the ARVP16 DNA Binding Assay (Agonist mode) is >20x DMSO control)” and < 1 µM.
With `N#Cc1ccccc1N1C(=S)N(c2cnc(C#N)c(C(F)(F)F)c2)C(=O)C12CCC2` [Compound 10, 5-(5-(2-Cyanophenyl)-8-oxo-6-thioxo-5,7-diazaspiro[3.4]octan-7-yl)-3-(trifluoromethyl)picolinonitrile], the “ARVP16 DNA Binding Assay” value on AR-VP16 [1] was “No (Agonist defined as a compound whose Emax in the ARVP16 DNA Binding Assay (Agonist mode) is >20x DMSO control)”. The IC50 at AR-VP16 [2] is > 1 µM.
Take `COCCCCOc1ccc(N2C(=S)N(c3cnc(C#N)c(C(F)(F)F)c3)C(=O)C23CCC3)cc1F` [Compound 133, 5-(5-(3-Fluoro-4-(4-methoxybutoxy)phenyl)-8-oxo-6-thioxo-5,7-diazaspiro[3.4]octan-7-yl)-3-(trifluoromethyl)picolinonitrile]: on AR-VP16 [1], the “ARVP16 DNA Binding Assay” value is listed as “No (Agonist defined as a compound whose Emax in the ARVP16 DNA Binding Assay (Agonist mode) is >20x DMSO control)”. Also, the IC50 at AR-VP16 [2] is < 1 µM.

Source of the values: US9108944B2, “Androgen receptor modulators and uses thereof” (ARAGON PHARMACEUTICALS, INC., priority 2010, dated 2015).
